The text below walks through data of patent US20030091589A1, “Methods and compositions for control of coccidiosis” (priority 2001, published 2003).

Each structure is given as a SMILES string. Marks after values point to notes of the source that are not given here.

Test [1] concerns Eimeria spp. Briefly: 42-day trials, growth of broiler chicks reared on Eimeria-infected recycled litter (Example 6). The test is classed as in vivo, Cornish Rock male broiler chicks. As to conditions: AVATEC 90.7 g/ton, Bacitracin Zn 50 g/t, BIO-MOS 0.5 kg/tonne. The protocol: Three 42-day trials were conducted to evaluate the effects of AVATEC (lasalocid, Alpharma, Fort Lee, N.J.), an anticoccidial ionophore (90.7 g/ton); Bacitracin Zn, (50 g/t), and BIO-MOS® (0.5 kg/tonne) on the growth of broiler chicks reared on recycled litter. Sixty (day-old) Cornish Rock male broiler chicks were put into each of four treatment groups (replicated three times) consisting of the following: 1) Control (untreated birds); 2) BIO-MOS® treated, 3) AVATEC treated, and 4) Bacitracin ZN treated. Pine wood shavings on which broilers infected with E. tenella, E. maxima, and E. acervulina had been grown were used as recycled litter for the trials. Pens containing this recycled litter were assigned to the four treatment groups prior to commencement of the trial, and day old chicks were introduced for each of the three subsequent trials with the same recycled litter.
Diets consisted of mainly corn-soy supplemented with necessary vitamins and minerals to satisfy 1994 National Research Council requirements. Weekly body weights were measured. […] Mean body weight averages of chicks in all treatments decreased with each cycle of litter re-use due to infection.

Test [2] relates to Eimeria spp. Nature of the test: 20-day battery trial, chicks challenged with sporulated Eimeria species (Example 5). The class given is in vivo, broiler chicks (Cobb). Here is the method: A 20-day battery trial was conducted to determine the anticoccidial activity of a BIO-MOS® in broiler chicks (Cobb) challenged with sporulated Eimeria species. One hundred sixty chicks (day old) were housed in battery cages (10 chicks per cage, 459 sq.cm/bird). There were 4 replicated cages per treatment. A standard soya corn diet was provided with water ad libitum. Treatment groups were the following: 1) Negative control (non-medicated, unchallenged); 2) Positive control (non-medicated and challenged; 3) BIO-MOS®, 1 kg/tonne (challenged); and 4) Salinomycin, 60 g/tonne (challenged).
The challenge inoculum was provided at 14 days of age and contained respectively, 50,000 E. acervulina, 5,000 E. maxima or 40,000 E. tenella oocysts administered by oral gavage. Body weights and feed consumption were measured at 0, 14 and 20 days of age.
Six days post infection all birds were sacrificed and lesion scored, using the method of Johnson and Reid supra. Lesion scores were evaluated in the upper (E. acervulina), middle (E. maxima), and cecal (E. tenella) regions of the intestine.

The test system of a further test is E. acervulina. Nature of the test: 28-day trial, broiler chicks challenged with E. acervulina (Example 3). The test is classed as in vivo, Cornish Rock male broiler chicks. The protocol:
A 28-day trial with 360 Cornish Rock male broiler chicks was conducted to investigate the effects of two medicated feeds on the suppression of detrimental effects of E. acervulina.
Day-old chicks were fed a standard corn soya diet containing Salinomycin (6 mg/kg) or BIO-MOS® (1 kg/tonne). The four experimental groups were: 1) negative control, unmedicated, unchallenged; 2) Salinomycin-treated, challenged, 3) BIO-MOS®-treated, challenged and 4)BIO-MOS® treated, unchallenged. Birds were randomly assigned to three replicate pens in each treatment group. At 14 days of age, chicks were infected orally by gavage with E. acervulina (500,000 oocysts/bird). The response variables measured included weekly body weight gain and cecal lesion scores. Data were subjected to ANOVA using the General Linear Model procedure (SAS Institute, Cary, N.C.) as described in Example 1.

For test [3], the system named is Eimeria spp. Nature of the test: 20-day battery trial, chicks challenged with sporulated Eimeria species (Example 4). The class given is in vivo, broiler chicks (Cobb). The protocol:
A 20-day battery trial was conducted to determine the anticoccidial activity of a yeast cell composition in broiler chicks (Cobb) challenged with sporulated Eimeria species. One hundred sixty chicks (day old) were housed in battery cages (10 chicks per cage, 459 sq. cm/bird). There were four replicated cages per treatment. A standard corn soya diet was provided with water ad libitum. Treatment groups were the following: (1) Negative control (non-medicated, unchallenged); 2) positive control (non-medicated, challenged; 3) BIO-MOS®, 1 kg/tonne (challenged); and 4) Salinomycin, 60 g/tonne (challenged).
The challenge inoculum was provided at 14 days of age and contained 50,000 E. acervulina, 5,000 E. maxima or 40,000 E. tenella oocysts, respectively, administered by oral gavage. Body weights and feed consumption were measured at 9, 14 and 20 days of age. Six days post-infection all birds were sacrificed and lesion scored using the method of Johnson and Reid (1970) supra. Lesion scores were evaluated in the upper (E. acervulina), middle (E. maxima), and cecal (E. tenella) regions of the intestine.

For another test, the system named is E. maxima. Nature of the test: 28-day trial, broiler chicks challenged with E. maxima (Example 2). The class given is in vivo, Cornish Rock male broiler chicks. Here is the method: A 28-day trial with 360 Cornish Rock male broiler chicks was conducted to investigate the effects of two medicated feeds on the suppression of E. maxima infection. Thirty day-old chicks per treatment group were housed in battery cages and fed a standard soya corn diet containing Monensin ([…]) or a commercially available yeast cell-derived composition containing yeast cell wall material and mannanoligosaccharide (BIO-MOS®) (1 kg/tonne). The four experimental groups included: 1) negative control (unmedicated, unchallenged); 2) positive control (unmedicated, challenged); 3) Monensin treated, challenged, and 4) BIO-MOS® treated, challenged. Birds were assigned to treatments and replicate pens as described in Example 1. At 14 days of age, chicks were infected orally by gavage with E. maxima (50,000 oocysts/bird). The response variables measured included weekly body weight gain and cecal lesion scores. Such measurements were subjected to analysis of variance as described in Example 1.

A further test deals with E. tenella. Briefly: 28-day trial, broiler chicks challenged with E. tenella (Example 1). The test is classed as in vivo, Cornish Rock male broiler chicks. Here is the method:
A 28-day trial with 360 Cornish Rock male broiler chicks was conducted to investigate the effects of two medicated feeds on the suppression of detrimental effects of E. tenella (See Tables I & II).
Day-old chicks were fed standard corn soya diets containing Monensin ([…]) or a yeast cell wall/mannanoligosaccharide-containing composition (BIO-MOS®, Alltech, Inc., Nicholasville, Ky.) (1 kg/tonne). The experimental groups included: 1) negative control (unmedicated, unchallenged); 2) positive control (untreated, challenged); 3) Monensin-treated, challenged and 4) BIO-MOS®-treated, challenged. Birds were randomly assigned to three replicate pens in each treatment group. At 14 days of age, chicks were infected orally by gavage with E. tenella (50,000 oocysts/bird). The response variables measured included weekly body weight gain and cecal lesion scores as described (Johnson and Reid. 1970 “Anticoccidial Drugs: Lesion Scoring Technique in Battery and Floor Pen Experiments with Chickens.” Exp. Parasitol. 28:30-36). Treatment differences were evaluated by using the LSD procedure with the General Linear Models Procedure (SAS Institute, 1985, Cary, N.C.) using pens as the experimental units. The model statement included only treatment effects. When significance differences (P<0.05) were observed, the least significant differences (LSD) procedures was applied to test for the differences among treatments.

Where [4] appears, read: Eimeria spp. infected, BIO-MOS 1 kg/t, Salinomycin 60 g/t.
Where [5] appears, read: post-challenge period, BIO-MOS 1 kg/t, Salinomycin 60 g/t.
[6] abbreviates: post-challenge weight gain versus unchallenged control.
[7] abbreviates: pre-challenge period, BIO-MOS 1 kg/t, Salinomycin 60 g/t.
Setting [8] is: whole trial, BIO-MOS 1 kg/t, Salinomycin 60 g/t.

`CC[C@@H](C(=O)[C@@H](C)[C@@H](O)[C@H](C)CCc1ccc(C)c(O)c1C(=O)O)[C@H]1O[C@](CC)([C@H]2CC[C@](O)(CC)[C@H](C)O2)C[C@@H]1C` [AVATEC, lasalocid]: the “Body Weight, Trial 1” value in the test with Eimeria spp. [1] (42-day trial 1 on recycled litter) is on record as 2271^a Grams. In addition, in the test on Eimeria spp. [1] (42-day trial 2 on same recycled litter), the “Body Weight, Trial 2” value is recorded as 1863^b Grams. The “Body Weight, Trial 3” value in the test on Eimeria spp. [1] (42-day trial 3 on same recycled litter) was 1760^ab Grams.
Regarding `CC[C@@H](C(=O)[C@@H](C)[C@@H](O)[C@H](C)[C@@H]1O[C@@H]([C@@H](CC)C(=O)O)CC[C@@H]1C)[C@H]1O[C@]2(C=C[C@@H](O)[C@]3(CC[C@@](C)([C@H]4CC[C@](O)(CC)[C@H](C)O4)O3)O2)[C@H](C)C[C@@H]1C` [Salinomycin], in the test on Eimeria spp. [2] (Eimeria spp. challenge), the “lesion scores versus the positive control in all regions of the gut” value is on record as “significantly lower lesion scores”. The “Feed Conv.” value with Eimeria spp. [2] (setting [4]) is 1.675^a; in the test on Eimeria spp. [3] (setting [4]), 1.511^b. For the same molecule, the “Average Cecal Lesion Scores, Ceca” value is given as 1.2^b in the test on Eimeria spp. [2] (cecal region (E. tenella), six days post infection, BioMos 1 kg/t, Salinomycin 60 g/t) and 0.6^c with Eimeria spp. [3] (cecal region (E. tenella), six days post-infection, BioMos 1 kg/t, Salinomycin 60 g/t). Also, the “Average Cecal Lesion Scores, Mid” value in the test with Eimeria spp. [2] (middle intestine (E. maxima), six days post infection, BioMos 1 kg/t, Salinomycin 60 g/t) was 0.7^b; in the test with Eimeria spp. [3] (middle intestine (E. maxima), six days post-infection, BioMos 1 kg/t, Salinomycin 60 g/t), 0.8^c. In addition, the “Avg. Live Wt. Gain Day 14-20” value with Eimeria spp. [2] (setting [5]) is given as 0.243^ab kg; in the test on Eimeria spp. [3] (setting [5]), 0.314^a kg. Besides, the “% Wt. Gain Reduction” value is 8.90% in the test on Eimeria spp. [2] (setting [6]) and −0.41% in the test on Eimeria spp. [3] (setting [6]). Also, the figures for the “Avg. Live Wt. Gain Day 0-14” value in the test on Eimeria spp. [2] (setting [7]) and with Eimeria spp. [3] (setting [7]) were 0.262^a kg and 0.634^a kg, respectively. The “Average Cecal Lesion Scores, Total” value was 2.7^ab in the test with Eimeria spp. [2] (total of regions, six days post infection, BioMos 1 kg/t, Salinomycin 60 g/t) and 2.7^c in the test on Eimeria spp. [3] (total of regions, six days post-infection, BioMos 1 kg/t, Salinomycin 60 g/t). The “Average Cecal Lesion Scores, Upper” value in the test on Eimeria spp. [2] (upper intestine (E. acervulina), six days post infection, BioMos 1 kg/t, Salinomycin 60 g/t) is on record as 0.8^b; in the test on Eimeria spp. [3] (upper intestine (E. acervulina), six days post-infection, BioMos 1 kg/t, Salinomycin 60 g/t) it was 1.3^c. Moreover, the “Avg. Live Wt. Gain Day 0-20” value is 0.504^ab kg with Eimeria spp. [2] (setting [8]) and 0.634^a kg in the test on Eimeria spp. [3] (setting [8]). For the same molecule, the “Body Weight Gain Post-Infection Week 3” value in the test with E. acervulina (Challenge: Yes (E. acervulina)) was 350^a grams. Also, in the test on E. acervulina (Challenge: Yes (E. acervulina)), the “Body Weight Gain Post-Infection Week 4” value was 607^ab grams. Moreover, the “Body Weight Pre-Infection Week 2” value in the test on E. acervulina (Challenge: Yes (E. acervulina)) is recorded as 236^a grams. Besides, the “reduction of severity of cecal lesions (cecal lesion scores)” value in the test with E. acervulina (E. acervulina challenge, versus positive control) is reported as 57%. Moreover, the “Cecal Lesion Scores” value in the test on E. acervulina (chicks challenged with E. acervulina 500,000 oocysts/bird at 14 days, Salinomycin 6 mg/kg or BIO-MOS 1 kg/tonne in feed) is given as 0.92^bc. Also, the “lesion scores compared to control groups in the upper and mid intestine regions” value in the test with Eimeria spp. [3] (Eimeria spp. challenge) is “significantly reduced (P<0.05)”.
As to `CC[C@@]1([C@@H]2O[C@@H]([C@H]3O[C@@](O)(CO)[C@H](C)C[C@@H]3C)C[C@@H]2C)CC[C@H]([C@]2(C)CC[C@]3(C[C@H](O)[C@@H](C)[C@@H]([C@@H](C)[C@@H](OC)[C@H](C)C(=O)O)O3)O2)O1` [Monensin], the “Average Weight Gain, Mean” value in the test with E. maxima (E. maxima infected, 2-4 weeks after challenge, mean of 3 replications) was 536; in the test on E. tenella (E. tenella infected, weeks 2-4 after challenge, mean of 3 replications) it was 544 Grams. Moreover, the “Average Weight Gain, Replication 1” value in the test on E. maxima (E. maxima infected, 2-4 weeks after challenge, replicate pen 1) was determined as 598; in the test with E. tenella (E. tenella infected, weeks 2-4 after challenge, replicate pen 1), 498 Grams. Further, the “Average Weight Gain, Replication 2” value is recorded as 412 in the test on E. maxima (E. maxima infected, 2-4 weeks after challenge, replicate pen 2) and 611 Grams in the test with E. tenella (E. tenella infected, weeks 2-4 after challenge, replicate pen 2). Moreover, the “Average Weight Gain, Replication 3” value in the test on E. maxima (E. maxima infected, 2-4 weeks after challenge, replicate pen 3) amounted to 599; with E. tenella (E. tenella infected, weeks 2-4 after challenge, replicate pen 3) it was 523 Grams. The “reduction of average cecal lesion scores” value with E. maxima (E. maxima infection, versus positive control) worked out at 21%. Besides, the “Cecal Lesion Scores” value with E. maxima (chicks challenged with E. maxima 50,000 oocysts/bird at 14 days, Monensin 60 g/kg or BIO-MOS 1 kg/tonne in feed) is listed as 0.93^b; in the test with E. tenella (chicks infected with E. tenella 50,000 oocysts/bird at 14 days, Monensin 60 g/kg or BIO-MOS 1 kg/tonne in feed), 1.50^b. For the same molecule, in the test on E. tenella (standard Monensin treatment), the “improvements in weight gain relative to E. tenella-challenged control” value was “not seen”. In addition, the “severity of the E. tenella infections as measured by cecal lesion scores” value in the test with E. tenella (versus untreated challenged control) is on record as “significantly (P<0.05) reduced”.
